The values below come from PubChem BioAssay AID330 (DTP/NCI, 2004).

The structures appear in SMILES notation. “And” between values parts separate entries of the source, which are not always exact repeats. Identical values can stand only once. Toxic doses and inconclusive results are not listed.

The subject of this assay is P388 leukemia ip, CD2F1 mice, survival T/C. Kind of assay: NCI In Vivo Anticancer Drug Screen. Data for tumor model P388 Leukemia (intraperitoneal) in CD2F1 (CDF1) mice. The note with it: endpoint: median survival time, higher = longer survival. The essentials: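 Mice carrying the transplanted tumor received test compound or vehicle. Survival was recorded in each group, and the value is the treated-group measurement divided by that of the vehicle-treated control group.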

Where [1] appears, read: dose: 50.0 mg/kg/injection, schedule: Q01DX009 (ip), vehicle: saline with Tween-80.
The mark [2] stands for this setting: dose: 60.0 mg/kg/injection, schedule: Q01DX005 (ip), vehicle: saline with Tween-80.
Where [3] appears, read: dose: 120.0 mg/kg/injection, schedule: Q01DX005 (ip), vehicle: saline with Tween-80.
Where [4] appears, read: dose: 50.0 mg/kg/injection, schedule: Q01DX005 (ip), vehicle: Klucel (hydroxypropylcellulose) (HPC).
The mark [5] stands for this setting: dose: 100.0 mg/kg/injection, schedule: Q01DX005 (ip), vehicle: Klucel (hydroxypropylcellulose) (HPC).
Setting [6] is: dose: 200.0 mg/kg/injection, schedule: Q01DX005 (ip), vehicle: Klucel (hydroxypropylcellulose) (HPC).
Where [7] appears, read: dose: 240.0 mg/kg/injection, schedule: Q01DX005 (ip), vehicle: saline with Tween-80.

`CCN(CC)CC(C)Nc1ccc(C)c2sc3ccccc3c(=O)c12` (configuration not stated): the T/C by setting is: (dose: 75.0 mg/kg/injection, schedule: Q01DX009 (ip), vehicle: saline) 175 % of control; (dose: 300.0 mg/kg/injection, schedule: Q01DX009 (ip), vehicle: saline) 100 % of control.
For `COc1ccc(NC(C)=NC(C)C)cc1`, the T/C by setting is: (dose: 12.5 mg/kg/injection, schedule: Q01DX009 (ip), vehicle: saline with Tween-80) 101 % of control and 88 % of control; (dose: 25.0 mg/kg/injection, schedule: Q01DX009 (ip), vehicle: saline with Tween-80) 92 % of control; (dose: 50.0 mg/kg/injection, schedule: Q01DX009 (ip), vehicle: saline + Tween-80 + alcohol) 98 % of control; under setting [1], 100 % of control and 101 % of control.
On to `NC[CH2][Sn]([c]1ccccc1)([CH]1CCCCC1)[CH]1CCCCC1`, for which the T/C (dose: 3.75 mg/kg/injection, schedule: Q01DX005 (ip), vehicle: saline with Tween-80) is 100 % of control; the T/C (dose: 7.5 mg/kg/injection, schedule: Q01DX005 (ip), vehicle: saline with Tween-80) was 93 % of control; the T/C (dose: 15.0 mg/kg/injection, schedule: Q01DX005 (ip), vehicle: saline with Tween-80) was 99 % of control; the T/C under setting [2] is 92 % of control.
In the case of `CCOC1CC2C(=O)C(CC)=C(OC)CC2(CC)CO1` (configuration not stated), the T/C runs as follows: under setting [2], 98 % of control; under setting [3], 99 % of control.
Take `COc1cc2c(c(OC)c1OC)-c1ccc(OC)c(=O)cc1[C@@H](N(C)Cc1ccccc1O)CC2`: the T/C is 97 % of control (dose: 1.25 mg/kg/injection, schedule: Q01DX009 (ip), vehicle: Klucel (hydroxypropylcellulose) (HPC)); 97 % of control (dose: 2.5 mg/kg/injection, schedule: Q01DX009 (ip), vehicle: Klucel (hydroxypropylcellulose) (HPC)); 111 % of control (dose: 5.0 mg/kg/injection, schedule: Q01DX009 (ip), vehicle: Klucel (hydroxypropylcellulose) (HPC)); 166 % of control and 188 % of control (dose: 20.0 mg/kg/injection, schedule: Q01DX009 (ip), vehicle: Klucel (hydroxypropylcellulose) (HPC)).
`Cc1cccc(NC(=O)c2ccccc2)n1`: the T/C reads like this: (dose: 12.5 mg/kg/injection, schedule: Q04DX003 (ip), vehicle: saline) 104 % of control; (dose: 25.0 mg/kg/injection, schedule: Q04DX003 (ip), vehicle: saline) 100 % of control; (dose: 50.0 mg/kg/injection, schedule: Q04DX003 (ip), vehicle: saline) 90 % of control.
With `CCNC(=O)N1CC(=O)Nc2ccccc21`, the T/C by setting is: (dose: 50.0 mg/kg/injection, schedule: Q01DX005 (ip), vehicle: saline with Tween-80) 101 % of control; (dose: 100.0 mg/kg/injection, schedule: Q01DX005 (ip), vehicle: saline with Tween-80) 96 % of control.
Consider `Brc1c(C(Br)Br)ccc2ccccc12`, for which the T/C runs as follows: under setting [4], 103 % of control; under setting [5], 105 % of control; under setting [6], 109 % of control.
`COc1cc(C2(C3CC(=O)OC3COC(c3ccccc3)(c3ccccc3)c3ccccc3)SCCCS2)cc(OC)c1OC` (configuration not stated): the T/C (dose: 100.0 mg/kg/injection, schedule: Q04DX002 (ip), vehicle: saline with Tween-80) is 88 % of control.
With `CCOC([O-])=N/C(C)=N/[n+]1ccccc1C`, the T/C runs as follows: (dose: 50.0 mg/kg/injection, schedule: Q01DX009 (ip), vehicle: saline) 107 % of control; (dose: 100.0 mg/kg/injection, schedule: Q01DX009 (ip), vehicle: saline) 104 % of control; (dose: 200.0 mg/kg/injection, schedule: Q01DX009 (ip), vehicle: saline) 107 % of control.
In the case of `Fc1nn2ccccc2c1C(F)(F)F`, the T/C is 99 % of control under setting [4], 104 % of control under setting [5] and 100 % of control under setting [6].
With `CCOc1cc2c(cc1C(CC)c1ccc(OCc3ccccc3)cc1)OCO2` (configuration not stated), the T/C under setting [4] was 92 % of control and the T/C under setting [5] is 87 % of control.
Turning to `CC(=O)Nc1ccc(S(=O)(=O)Oc2noc3ccc(S(N)(=O)=O)cc23)cc1`, the T/C by setting is: (dose: 100.0 mg/kg/injection, schedule: Q04DX002 (ip), vehicle: Klucel (hydroxypropylcellulose) (HPC)) 102 % of control; (dose: 200.0 mg/kg/injection, schedule: Q04DX002 (ip), vehicle: Klucel (hydroxypropylcellulose) (HPC)) 107 % of control; (dose: 400.0 mg/kg/injection, schedule: Q04DX002 (ip), vehicle: Klucel (hydroxypropylcellulose) (HPC)) 109 % of control.
`C=CCN1C(=O)[N+](C)(C)N=C1[O-]`: the T/C (dose: 100.0 mg/kg/injection, schedule: Q04DX003 (ip), vehicle: saline) is 106 % of control; the T/C (dose: 200.0 mg/kg/injection, schedule: Q04DX003 (ip), vehicle: saline) is 106 % of control; the T/C (dose: 400.0 mg/kg/injection, schedule: Q04DX003 (ip), vehicle: saline) was 101 % of control.
On to `CCOc1ccc(C(C)c2cc3c(cc2OC)OCO3)cc1C` (configuration not stated), for which the T/C under setting [4] was 109 % of control and 113 % of control; the T/C under setting [5] is 108 % of control and 118 % of control; the T/C under setting [6] was 116 % of control; the T/C (dose: 400.0 mg/kg/injection, schedule: Q01DX005 (ip), vehicle: Klucel (hydroxypropylcellulose) (HPC)) is 165 % of control.
`O=C1C=C(N2CC2)C(=O)C=C1N1CC1`: the T/C is 157 % of control (dose: 0.12 mg/kg/injection, schedule: Q01DX009 (ip), vehicle: saline); 150 % of control and 170 % of control and 196 % of control (dose: 0.25 mg/kg/injection, schedule: Q01DX009 (ip), vehicle: saline); 153 % of control and 185 % of control and 206 % of control (dose: 0.5 mg/kg/injection, schedule: Q01DX009 (ip), vehicle: saline); 95 % of control (dose: 1.0 mg/kg/injection, schedule: Q01DX009 (ip), vehicle: saline).
Turning to `CN(C)N(P(c1ccccc1)c1ccccc1)P(c1ccccc1)c1ccccc1`, the T/C was 93 % of control (dose: 100.0 mg/kg/injection, schedule: Q04DX003 (ip), vehicle: saline with Tween-80); 92 % of control (dose: 200.0 mg/kg/injection, schedule: Q04DX003 (ip), vehicle: saline with Tween-80); 94 % of control (dose: 400.0 mg/kg/injection, schedule: Q04DX003 (ip), vehicle: saline with Tween-80).
On to `O=C1c2nc[nH]c2C(=O)c2c1nc[nH]c2=O`, for which the T/C runs as follows: (dose: 3.75 mg/kg/injection, schedule: Q01DX005 (ip), vehicle: other) 101 % of control; (dose: 7.5 mg/kg/injection, schedule: Q01DX005 (ip), vehicle: other) 100 % of control; (dose: 15.0 mg/kg/injection, schedule: Q01DX005 (ip), vehicle: other) 106 % of control; (dose: 30.0 mg/kg/injection, schedule: Q01DX005 (ip), vehicle: other) 102 % of control.
Regarding `C/C=C1/CN2CCC34c5ccccc5N(C)C23C(OC(C)=O)CC1C4(CO)C(=O)OC` (configuration not stated), the T/C reads like this: (dose: 2.25 mg/kg/injection, schedule: Q01DX005 (ip), vehicle: saline + Tween-80 + alcohol) 120 % of control; (dose: 4.5 mg/kg/injection, schedule: Q01DX005 (ip), vehicle: saline + Tween-80 + alcohol) 103 % of control; (dose: 9.0 mg/kg/injection, schedule: Q01DX005 (ip), vehicle: saline + Tween-80 + alcohol) 106 % of control; (dose: 18.0 mg/kg/injection, schedule: Q01DX005 (ip), vehicle: saline + Tween-80 + alcohol) 104 % of control.
On to `O=C(CCCl)Nc1ccc(CCC(=O)c2ccccc2NC(=O)CCCl)cc1`, for which the T/C is, setting by setting: under setting [2], 100 % of control; under setting [3], 90 % of control; under setting [7], 92 % of control.
On to `O=c1nnc(O)c2n(O)cccc1-2`, for which the T/C is 100 % of control under setting [2], 105 % of control under setting [3] and 97 % of control under setting [7].
Turning to `Nc1ccc2c(c1)C1(CCC2)NC(=O)NC1=O` (configuration not stated), the T/C is 96 % of control under setting [1]; 95 % of control (dose: 100.0 mg/kg/injection, schedule: Q01DX009 (ip), vehicle: saline with Tween-80); 105 % of control (dose: 200.0 mg/kg/injection, schedule: Q01DX009 (ip), vehicle: saline with Tween-80).
